Data reported in patent US7709002B1, “Mutated ras peptides for generation of CD8+Cytotoxic T lymphocytes” (The United States of America as represented by the …, priority 1996, dated 2010).
Where no end group is shown, it is not given here.

Assays:
[1] = test system: ras p21 codon 12 mutated carcinoma patients; assay: Phase I vaccination of metastatic carcinoma patients with mutant ras 13-mer peptide in Detox adjuvant; format: in vivo, human; details: patient 32, 0.1 mg/vaccination x3 in Detox adjuvant, s.c.
Description: Patient selection. Adult cancer patients with histologically confirmed diagnosis of adenocarcinoma of the colon, gastrointestinal tract, lung or pancreas with metastatic disease, were screened as potential candidates for this phase I clinical study. Tumor samples from these patients were examined for point mutations in the K-ras gene at codon 12 by polymerase chain reaction (PCR) of paraffin-embedded sections by methods known in the art. In addition to fulfilling all other essential inclusion criteria as specified in the FDA-approved NCI clinical protocol, those patients presenting the appropriate K-ras mutation were then selected for study entry.
Peptides and immunizations. Mutant ras 13-mer peptides used as immunogens were synthesized as clinical grade reagents under GMP conditions (Bachem, Torrance, Calif.: >97% purity by HPLC). Control and additional experimental peptides, which were used in vitro, either were prepared commercially (Bachem) or synthesized in the laboratory on an Applied Biosystems Model 432A personal peptide synthesizer (Foster City, Calif.) using Fmoc chemistry (>90% purity by HPLC). These reagent-grade products were dissolved in aqueous solution at 2 mg/ml, filter-sterilized and stored in aliquots at −70° C. The normal sequence of ras p21 reflecting positions 5-17 is […]([…]) (SEQ. ID NO. 1). […]

[2] = test system: post-vaccine PBMC of patient 32; assay: Lymphoproliferation of post-vaccine PBMC of patient 32; format: cell-based, human; details: multiple IVS cycles
[3] = test system: T2 cell line as target of CD8+ CTL line of RAS patient 32; assay: 51Cr-release cytotoxicity of CD8+ CTL line of RAS patient 32 against peptide-pulsed T2 targets; format: cell-based, human; details: peptide 10 μg/ml, IVS cycle 7 (FIG. 5)
Method: FIG. 5. Cytolytic activity by CD8^+ CTL line of RAS patient 32 is peptide-specific. The CD8^+ CTL line of RAS patient 32 (see FIG. 3) was assayed against the T2 cell line as a target, incubated with and without different ras peptides (10 μg/ml), as shown. In parallel, the extent of NK activity was evaluated against K562 cells. Cytotoxicity was determined by ^51Cr-release, and the results expressed at different E/T ratios following IVS cycle 7. Similar results were observed using the second, independently-derived CD8^+ CTL line as described in Table 6.
IVS cycles for evaluation of CD8^+ T cell responses from HLA-A2+Patients. Freshly-thawed PBMC (from ras patients 32 and 33), derived pre-vaccination and post-third vaccination, were enriched in T lymphocytes by passage over nylon wool columns (Robbins Scientific, Sunnyvale, Calif.) and then depleted of CD4^+ T cells by negative selection via panning on anti-CD4 MAb-coated T25 flasks (Applied Immune Sciences, Santa Clara, Calif.). For the first IVS cycle, CD8^+ enriched lymphocytes (5×10^5/well) were cultured in 24-well plates with irradiated, autologous PBMC (5×10^6/well) as APC which had been preincubated for 3 hours with the appropriate mutant ras peptide ([…]) plus human β2-microglobulin (10 μg/ml) (Calbiochem, San Diego, Calif.). […] IL-2 (10 U/ml) was added 3 days later. After an additional 7 days, viable cells (2-5×10^5/well) were re-cultured by weekly stimulation with APC pre-pulsed with peptide/β2-microglobulin, and IL-2 added one day later. After the third or fourth IVS cycle, autologous PBMC were replaced with EBV-transformed, autologous BLCL (5×10^5/well) as APC. […] CTL activity was evaluated from cultures 5 to 6 days after Ag restimulation.
Cytotoxic response. Cytotoxicity was examined by a conventional ^51Cr-release assay, as described (6). Briefly, target cells (i.e. T2, C1R-A2, BLCL, K562) were radiolabeled with 200 μCi of Na2[^51Cr]04 (Amersham) for 60 minutes at 37° C., followed by thorough washing to remove unincorporated isotope. Effectors and targets (1×10^4/well) were incubated in 96-well, U-bottomed plates (Costar) at various effector target (E/T) ratios in the absence and presence of peptide (+/−monoclonal antibody (MAb) directed against CD4, CD8 or HLA-A2 molecules (clone BB7.2 from ATCC)) for up to 6 hours. After incubation, supernatants were collected using a Supernatant Collection System (Skatron, Sterling, Va.) and radioactivity measured in a γ-counter (Packard Instruments, Downers Grove, Ill.). Cytotoxic activity was defined as percent specific release of ^51Cr and determined by the equation: [(experimentalcpm−spontaneouscpm)/maximumcpm−spontaneouscpm)]×100. Results were expressed as the mean±SEM of triplicate cultures. […]

[4] = test system: HLA-A2+ peptide-pulsed targets; assay: Generation and cytotoxicity of ras4-12(V12)-specific CD8+ CTL line from a normal HLA-A2+ donor; format: cell-based, human; details: wild-type printed as wild-type ras peptide
BALB/c mouse = assay: Induction of MHC class I-restricted CD8+ CTL responses in the mouse; format: in vivo, mouse (BALB/c; H-2^d); details: H-2^d
Description: The basis of immunogenicity, in part, was attributed to the introduction of the mutated Val12 residue, which created a dominant C-terminus anchor for MHC class I binding. The resulting CD8^+ CTL response, thus, likely reflected T cell receptor recognition of a previously unseen peptide/MHC complex. In contrast to the ras5-14 sequence, ras4-12(V12) only partly shared the consensus motif for HLA-A2 binding, as the leucine anchor shifted from position 2 to 3. Importantly, the introduction of the mutated Val12 residue, as in the mouse, now created a dominant C-terminus anchor. […] (See FIG. 6).

human HLA-A2 = biological target: T1, human HLA-A2 (Homo sapiens, UniProt P04439, D140Y/D185E/D98H/E176V/E277Q/G131W/G231S/I119V/I121R/I166T/I218V/L300P/L318F/N151K/N90K/P208A/P217A/Q86G/Q94H/R138H/R169H/T345S); assay: HLA-A2 binding bioassay on T2 cells (flow cytometry); details: T2 bioassay
T1 construct: The 174CEM.T2 cell line (“T2”), (transport deletion mutant); endogenous in cells; host or cells: 174CEM.T2 (T2) human cell line

“Lys-Leu-Val-Val-Val-Gly-Ala-Asp-Gly-Val-Gly-Lys-Ser [ras5-17(Asp12)]” was tested. Which “T cell response induced by vaccination” value [1] did it give?
Its value is “led to peptide-specific CD8^+ CTL activation”.

And the “CD4+ proliferative response against immunizing 13-mer peptide” value [2]?
The value was “No specific CD4^+ proliferative response was observed”.

What about the “Sensitization of T2 targets for lysis (in words)” value [3] of the same substance?
Its value is “did not appear to induce cytotoxicity”.

Which results are given for YKLVVVGAV [ras4-12(V12)]?
Generation of peptide-specific CTL line / lysis of peptide-pulsed targets (in words) [4]: A CD8^+ CTL line specific for ras4-12(V12) was then derived; Induction of CD8+ CTL responses in mouse (BALB/c mouse): resulted in the induction of MHC class I-restricted CD8^+ CTL responses; Binding to HLA-A2 on T2 cells (in words) (human HLA-A2): specific, albeit weak, binding to HLA-A2
